One experiment deals with HEK293. The experiment in a line: cells. The note with it: Homo sapiens. In kind it is functional, cell-based.
The target in experiment [1] is T1, Nuclear receptor subfamily 0 group B member 1 (Homo sapiens, UniProt P51843).
T1 sequence (P51843 whole entry): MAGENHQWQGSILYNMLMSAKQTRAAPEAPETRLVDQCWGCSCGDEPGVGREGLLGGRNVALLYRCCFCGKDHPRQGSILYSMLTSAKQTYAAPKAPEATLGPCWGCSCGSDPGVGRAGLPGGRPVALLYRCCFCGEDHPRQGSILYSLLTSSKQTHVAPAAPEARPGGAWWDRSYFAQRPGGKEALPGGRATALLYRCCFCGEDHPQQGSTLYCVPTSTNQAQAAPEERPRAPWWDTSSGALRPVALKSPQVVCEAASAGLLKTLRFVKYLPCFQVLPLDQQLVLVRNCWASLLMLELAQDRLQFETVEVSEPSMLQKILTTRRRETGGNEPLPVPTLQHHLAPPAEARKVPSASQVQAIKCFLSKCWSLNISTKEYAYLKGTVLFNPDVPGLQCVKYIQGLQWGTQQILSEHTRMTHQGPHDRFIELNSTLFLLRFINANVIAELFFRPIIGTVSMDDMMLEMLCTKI
The experiment in a line: Luminescence-based cell-based high throughput dose response assay for inhibitors of the orphan nuclear receptor subfamily 0, group B, member 1 (DAX1; NR0B1). [Related pubchem assays (depositor defined):AID504766, AID504790]. Type of experiment: functional.

For experiment [2], the target named is T2, Carboxy-terminal domain RNA polymerase II polypeptide A small phosphatase 1 (Homo sapiens, UniProt Q9GZU7).
T2 sequence (Q9GZU7 whole entry): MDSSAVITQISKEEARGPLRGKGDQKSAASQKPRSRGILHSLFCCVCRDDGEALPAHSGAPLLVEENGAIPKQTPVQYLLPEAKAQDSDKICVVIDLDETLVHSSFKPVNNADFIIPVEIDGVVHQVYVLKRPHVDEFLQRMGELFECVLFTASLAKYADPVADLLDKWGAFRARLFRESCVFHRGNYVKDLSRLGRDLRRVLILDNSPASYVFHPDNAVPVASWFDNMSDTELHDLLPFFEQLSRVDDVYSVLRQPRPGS
The experiment in a line: CTDSP1 inhibitors, concentration-response, biochemical, absorbance readout, ultra-high-throughput screen actives (AID 540297). In kind it is functional.

Experiment [3] can be described thus: A Cell Based Secondary Assay To Explore Cytotoxicity of Compounds that Sensitize Mycobacterium Tuberculosis to Beta-Lactam Antibiotics. Type of experiment: functional.
A further experiment concerns the target Protein Wnt-3a (Mus musculus, UniProt P27467). The experiment in a line: antagonism of Wnt3a pathway luciferase reporter – Wnt-LIGHT cells, luminescence, selectivity assay for Gli-SUFU antagonist project, dose response (AID 651570).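 Note: Wnt-LIGHT reporter cells stimulated with conditioned medium from Wnt3a-producing cells.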 In kind it is functional. The conditions noted are these: read-out: IC50_Mean.
The target in experiment [4] is 26S proteasome non-ATPase regulatory subunit 14 (Homo sapiens, UniProt O00487). The experiment in a line: inhibition of proteasome subunit RPN11 – biochemical, fluorescence polarization, uHTS hits, confirmation (AID 602368). Type of experiment: functional. A general note: Fluorescence polarisation rises when a labelled molecule tumbles more slowly, as on binding a larger partner.

Experiment [5] addresses 72 kDa type IV collagenase (Homo sapiens, UniProt P08253). The experiment in a line: Dose Response validation of uHTS RPN11 inhibitor hits using a MMP-2 Fluorescence assay. Type of experiment: functional.
Another experiment deals with Prothrombin (Bos taurus, UniProt P00735). The experiment in a line: thrombin protease inhibitors – biochemical, fluorescence polarization, uHTS hits, dose response (AID 602369). In kind it is functional.
The target in experiment [6] is T3, Mitochondrial peptide methionine sulfoxide reductase (Bos taurus, UniProt P54149).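 Note: absorbance read-out, biochemical high-throughput dose-response screen for MsrA inhibitors, confirmatory; recombinant bovine MsrA coupled to E. coli TrxB with NADPH and selenocystamine; potency is for inhibitors of MsrA activity on DMSO substrate.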
T3 sequence (P54149 whole entry): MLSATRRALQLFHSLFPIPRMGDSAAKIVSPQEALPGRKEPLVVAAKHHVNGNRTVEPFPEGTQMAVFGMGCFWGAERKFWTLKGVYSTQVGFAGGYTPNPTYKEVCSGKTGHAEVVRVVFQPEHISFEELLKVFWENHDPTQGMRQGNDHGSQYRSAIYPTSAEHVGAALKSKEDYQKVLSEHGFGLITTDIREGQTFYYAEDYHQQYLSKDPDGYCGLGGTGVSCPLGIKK
Type of experiment: functional.

For experiment [7], the target named is T4, Corticotropin-releasing factor receptor 2/Corticotropin-releasing factor-binding protein (Homo sapiens, UniProt P24387+Q13324).
T4 sequence (Q13324 whole entry): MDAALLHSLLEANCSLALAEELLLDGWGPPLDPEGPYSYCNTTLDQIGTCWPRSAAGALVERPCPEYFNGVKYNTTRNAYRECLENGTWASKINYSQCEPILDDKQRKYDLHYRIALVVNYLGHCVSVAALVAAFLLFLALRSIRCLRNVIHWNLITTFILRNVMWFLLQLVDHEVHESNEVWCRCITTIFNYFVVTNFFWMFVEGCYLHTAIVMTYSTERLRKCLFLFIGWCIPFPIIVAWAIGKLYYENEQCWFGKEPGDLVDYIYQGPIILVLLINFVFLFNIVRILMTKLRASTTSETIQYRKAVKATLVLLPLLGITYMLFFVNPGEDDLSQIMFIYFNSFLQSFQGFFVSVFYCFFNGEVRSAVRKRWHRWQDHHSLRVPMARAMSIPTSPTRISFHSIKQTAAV
T4 sequence (P24387 whole entry): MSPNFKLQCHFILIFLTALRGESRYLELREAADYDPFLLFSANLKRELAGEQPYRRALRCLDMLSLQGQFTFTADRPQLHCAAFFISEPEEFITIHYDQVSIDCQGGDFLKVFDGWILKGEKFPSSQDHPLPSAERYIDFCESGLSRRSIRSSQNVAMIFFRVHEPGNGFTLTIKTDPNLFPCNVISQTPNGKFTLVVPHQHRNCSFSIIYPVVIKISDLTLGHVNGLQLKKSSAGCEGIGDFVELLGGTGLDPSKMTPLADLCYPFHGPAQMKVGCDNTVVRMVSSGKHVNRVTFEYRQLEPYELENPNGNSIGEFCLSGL
The experiment in a line: Dose Response confirmation of uHTS hits for small molecule antagonists of the CRF-binding protein and CRF-R2 receptor complex. In kind it is functional. The note with it: read-out: IC50_Mean.

Experiment [8] concerns the target T4, Corticotropin-releasing factor receptor 2/Corticotropin-releasing factor-binding protein. The experiment in a line: activators of CRF receptor 2 with binding protein – uHTS hits, confirmation (AID 602473). In kind it is functional. The conditions noted are these: read-out: EC50_Mean.
The target in experiment [9] is T5, Rac GTPase-activating protein 1 (Homo sapiens, UniProt Q9H0H5).
T5 sequence (Q9H0H5 whole entry): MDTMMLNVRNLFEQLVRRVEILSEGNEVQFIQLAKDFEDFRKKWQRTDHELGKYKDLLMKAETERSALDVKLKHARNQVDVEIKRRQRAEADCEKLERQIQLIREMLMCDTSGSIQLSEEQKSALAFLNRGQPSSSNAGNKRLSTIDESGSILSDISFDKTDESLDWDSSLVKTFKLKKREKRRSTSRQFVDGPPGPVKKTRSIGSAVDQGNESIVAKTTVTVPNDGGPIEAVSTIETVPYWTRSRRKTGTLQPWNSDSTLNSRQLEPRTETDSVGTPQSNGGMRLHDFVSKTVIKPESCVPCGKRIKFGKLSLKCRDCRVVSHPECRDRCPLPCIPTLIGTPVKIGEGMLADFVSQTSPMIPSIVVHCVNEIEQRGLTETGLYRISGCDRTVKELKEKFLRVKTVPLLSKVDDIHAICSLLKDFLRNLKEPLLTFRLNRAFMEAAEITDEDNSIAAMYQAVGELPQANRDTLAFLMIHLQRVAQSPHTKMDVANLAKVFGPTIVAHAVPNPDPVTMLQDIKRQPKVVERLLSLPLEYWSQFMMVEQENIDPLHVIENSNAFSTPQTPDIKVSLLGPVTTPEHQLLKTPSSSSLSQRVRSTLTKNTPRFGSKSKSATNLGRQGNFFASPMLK
The experiment in a line: blockers of MgcRacGAP-driven Rac1 GTP hydrolysis – biochemical, ADP Hunter fluorescence, primary and confirmatory, confirmation (AID 624330). Type of experiment: functional.

Calls of active or inactive are those of the source. Some results are limits rather than exact numbers.

These results are taken from ChEMBL document CHEMBL1201862, “PubChem BioAssay data set” (2004).

26S proteasome non-ATPase regulatory subunit 14, sequence (O00487 whole entry): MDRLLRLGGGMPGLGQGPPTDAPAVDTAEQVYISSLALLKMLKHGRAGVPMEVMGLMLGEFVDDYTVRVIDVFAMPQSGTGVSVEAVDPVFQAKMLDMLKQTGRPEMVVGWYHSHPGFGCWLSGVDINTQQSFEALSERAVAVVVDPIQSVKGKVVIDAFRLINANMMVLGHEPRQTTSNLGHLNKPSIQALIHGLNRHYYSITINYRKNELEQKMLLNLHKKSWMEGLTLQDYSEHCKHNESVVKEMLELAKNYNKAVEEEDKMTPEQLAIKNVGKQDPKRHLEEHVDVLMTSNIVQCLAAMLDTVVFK
Protein Wnt-3a, sequence (P27467 whole entry): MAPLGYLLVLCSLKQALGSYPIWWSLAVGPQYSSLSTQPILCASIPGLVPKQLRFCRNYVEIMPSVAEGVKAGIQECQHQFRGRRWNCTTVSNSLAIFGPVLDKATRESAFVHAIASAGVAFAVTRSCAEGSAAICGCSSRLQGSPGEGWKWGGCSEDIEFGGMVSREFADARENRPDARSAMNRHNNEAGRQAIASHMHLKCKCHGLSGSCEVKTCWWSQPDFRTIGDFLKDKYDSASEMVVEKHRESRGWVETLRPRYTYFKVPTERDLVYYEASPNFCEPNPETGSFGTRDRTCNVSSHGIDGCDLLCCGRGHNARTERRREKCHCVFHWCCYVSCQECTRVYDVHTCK
72 kDa type IV collagenase, sequence (P08253 whole entry): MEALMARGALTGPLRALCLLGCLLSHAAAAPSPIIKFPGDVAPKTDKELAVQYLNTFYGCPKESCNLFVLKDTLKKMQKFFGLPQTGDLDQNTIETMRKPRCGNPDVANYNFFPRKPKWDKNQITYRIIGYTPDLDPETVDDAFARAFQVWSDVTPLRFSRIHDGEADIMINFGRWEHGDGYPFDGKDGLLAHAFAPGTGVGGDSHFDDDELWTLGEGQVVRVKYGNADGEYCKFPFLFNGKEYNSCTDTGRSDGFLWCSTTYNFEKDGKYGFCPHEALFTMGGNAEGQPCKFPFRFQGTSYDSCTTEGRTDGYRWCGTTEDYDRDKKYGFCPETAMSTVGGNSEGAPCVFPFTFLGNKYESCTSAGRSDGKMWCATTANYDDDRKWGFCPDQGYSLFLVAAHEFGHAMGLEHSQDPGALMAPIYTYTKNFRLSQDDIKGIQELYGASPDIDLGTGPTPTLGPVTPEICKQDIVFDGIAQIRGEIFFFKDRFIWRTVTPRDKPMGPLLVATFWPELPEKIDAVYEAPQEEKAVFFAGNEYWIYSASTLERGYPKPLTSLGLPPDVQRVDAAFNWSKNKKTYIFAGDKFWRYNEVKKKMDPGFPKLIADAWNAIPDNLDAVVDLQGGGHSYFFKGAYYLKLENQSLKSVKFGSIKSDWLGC

For `O=C(O)CC(NNC(=O)c1ccccc1)C(=O)Nc1ccc([N+](=O)[O-])cc1` (stereo unspecified), the IC50 (with HEK293; in experiment [1]) was > 67.5 µM (inactive) each time.

In the case of `O=C(Nc1nc2ccsc2c(=O)s1)c1ccc(F)cc1Cl`, the IC50 in the experiment with HEK293 was > 67.5 µM (inactive); in experiment [1], > 67.5 µM (inactive); in experiment [2], 31.7 µM (active).

Consider `CCNc1nc(CN2CCCCC2)nc2scc(-c3ccccc3)c12`, for which the CC50 (commonly the concentration giving 50% cytotoxicity) in experiment [3] is > 40 µM (active). On Protein Wnt-3a, the IC50 was 5.03 µM (active).

Take `O=[N+]([O-])c1ccc(N/N=C\c2cccn2-c2ccccc2)nc1`: the IC50 is 23.5 µM (active) in [4], > 100 µM (inactive) in experiment [5] and 29.5 µM (active) on Prothrombin.

As to `COCCNc1nc2c(c(=O)n(C)c(=O)n2C)n1Cc1cccc(C)c1`, the IC50 at Protein Wnt-3a was 1.95 µM (active).

For `C/C(=N\Nc1ccc([N+](=O)[O-])cc1[N+](=O)[O-])c1cccnc1`, the IC50 in [6] was 155 µM (inactive).

Consider `CC1(C)CC(NCCC(c2ccccc2)c2ccco2)CCO1` (stereo unspecified), for which the IC50 was > 67.5 µM (inactive) with HEK293, > 67.5 µM (inactive) in experiment [1] and > 47.1 µM (inactive) in experiment [7]. Also, the EC50 in experiment [8] was > 53 µM (inactive).

Consider `CN1C(=O)/C(=C/C=C2/CCCN2C)N(C)C1=S`, for which the IC50 in [4] is 8.15 µM (active); in experiment [5], > 100 µM (inactive); at Prothrombin, 29 µM (active); in experiment [9], 24.2 µM (active).

As to `COc1ccccc1NC(=O)CSc1ccc(-c2ccc(-n3cccn3)cc2)nn1`, the IC50 in [4] is 15.7 µM (active); in experiment [5] it was > 100 µM (inactive); on Prothrombin it was > 100 µM (inactive).

As to `O=C(COc1ccc(Cl)cc1Cl)OCC(=O)N1CCCc2ccccc21`, the IC50 (in the experiment with HEK293; in experiment [1]) was > 67.5 µM (inactive) each time.

Consider `FC(F)Oc1ccc(-[n+]2cc(-c3ccccc3)n3c2CCCCC3)cc1`, for which, on Protein Wnt-3a, the IC50 is 12.5 µM (active).
